In PubChem BioAssay AID557 (SRMLSC, 2006):
The source made the active and inactive calls.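 The calls were made as follows: active = clearly stronger inhibition of the target kinase than of the helper enzymes tested alone in a counter assay; inactive = the rest.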

Key:
[1] = target: mevalonate kinase (Streptococcus pneumoniae D39); experiment: mevalonate kinase inhibition dose curves – biochemical, PK/LDH-coupled NADH absorbance, hexokinase coupling counter-screen, dose response (AID 557); settings: purified MK, PK/LDH coupled NADH absorbance 340 nm
[2] = as above; settings: purified MK, PK/LDH coupled NADH absorbance 340 nm; measured here: coupling enzymes counter-screen (hexokinase)

N#Cc1ccc(-c2cccnc2)nc1SCC(=O)Nc1sc2c(c1C#N)CCC2
outcome [1]: inactive

CCCCn1c(Cl)nc2c1c(=O)n(C)c(=O)n2C
outcome [1]: inactive

Cn1c(SCCOc2cccc(Cl)c2)nnc1-c1ccncc1
outcome [1]: inactive

CC1=NN(c2ccccc2)C(=O)C1
outcome [1]: inactive

O=C(NCc1nnc(SCC(=O)N2CCN(c3ccccc3)CC2)o1)c1ccco1
outcome [1]: inactive

COc1ncnc(OC)c1NC(=O)c1ccc(F)cc1
outcome [1]: inactive

CC(C)OCCCNC(=O)CN1C(=O)CC(C)(C)S(=O)(=O)c2ccccc21
outcome [1]: inactive

CCC(=O)Nc1ccc(NC(=O)c2ccccn2)cn1
outcome [1]: inactive

CN(C)c1ccc(CNCCC2(O)CCOC(C)(C)C2)cc1 (centres undefined)
outcome [1]: inactive

COc1cc(C2c3c(n[nH]c3C)C(=O)N2c2ccc(C)cc2)ccc1O (centres undefined)
outcome [1]: inactive

COc1ccc(CN2C(=O)c3cccnc3C2Nc2cc(Cl)ccc2OC)cc1 (centres undefined)
IC50 [1]: 5.71 µM

O=C(NCc1n[nH]c(=S)n1-c1ccccc1)c1ccco1
outcome [1]: inactive

CCOC(=O)c1[nH]c2ccccc2c1NC(=O)c1ccc(Br)o1
outcome [1]: inactive

CCOc1cc(C(=O)NCCN2CCOCC2)cc(OCC)c1OCC
outcome [1]: inactive

O=c1c(-c2ccccc2)c(O)c2cccc3c2n1CCC3
outcome [1]: inactive

Cc1noc(C)c1C(=O)OCC(=O)/C=C1\N(C)c2ccccc2C1(C)C
outcome [1]: inactive

Cc1c(S(=O)(=O)Nc2cccc(Cl)c2)c(=O)n(C)c(=O)n1C
outcome [1]: inactive

c1ccn2c(SCc3ccc4c(c3)OCO4)nnc2c1
outcome [1]: inactive

Cc1noc(C)c1CSc1nnc(C)c(=O)[nH]1
outcome [1]: inactive

Cc1ccc(C(=O)COC(=O)CNC(=O)c2ccco2)cc1
outcome [1]: inactive

Cn1cnnc1SCC(=O)n1c2ccccc2c2ccccc21
outcome [1]: inactive

O=C1C(=O)N(CCN2CCOCC2)C(c2ccncc2)/C1=C(/O)c1ccc2c(c1)OCO2 (centres undefined)
IC50 [1]: 116 µM

OCCN(Cc1ccccc1)Cc1cccc(F)c1
outcome [1]: inactive

CCn1c(CC(C)C)n[nH]c1=S
outcome [1]: inactive

COc1ccccc1N1CCN(Cc2ccc(OC)c3ccccc23)CC1
outcome [1]: inactive

COc1ccc(Cl)cc1NC(=O)C1CCCN(S(=O)(=O)c2cccc3nonc23)C1 (centres undefined)
outcome [1]: inactive

CC(C)NC(=O)CSc1nnc(-c2ccc(S(=O)(=O)N3CCCC3)cc2)n1CC1CCCO1 (centres undefined)
outcome [1]: inactive

CCCc1[nH]nc2c1C(c1ccc(OC)c(Cn3nnc4ccccc43)c1)C(C#N)=C(N)O2 (centres undefined)
outcome [1]: inactive

Cc1ccsc1C1C(C(=O)O)c2ccccc2C(=O)N1C (centres undefined)
outcome [1]: inactive

COc1cccc(N2CCN(C3CC(=O)N(c4ccc(C)c(Cl)c4)C3=O)CC2)c1 (centres undefined)
outcome [1]: inactive

Cc1cc(NC(=O)c2cc(C3CC3)on2)no1
outcome [1]: inactive

CC(=O)NC(CCS(C)(=O)=O)C(=O)Nc1c(C)cccc1C (centres undefined)
outcome [1]: inactive

Nc1nnc(CCS(=O)(=O)c2cc(Cl)ccc2Cl)s1
outcome [1]: inactive

O=C(COC(=O)Cc1ccc(S(=O)(=O)N2CCOCC2)s1)NCc1ccccc1
outcome [1]: inactive

CC(C)C1Oc2ccccc2N(CC(=O)NCCCN2C(C)CCCC2C)C1=O (centres undefined)
outcome [1]: inactive

COc1ccccc1NS(=O)(=O)c1cccc2cccnc12
outcome [1]: inactive

CN1CCN(c2nc3c(c(=O)n(C)c(=O)n3C)n2Cc2cccc3ccccc23)CC1
outcome [1]: inactive

N#C/C(=C(/O)COC(=O)CCc1ccc(S(=O)(=O)N2CCOCC2)cc1)c1nc2ccccc2[nH]1
outcome [1]: inactive

N/C(CCN1CCOCC1)=N/O
outcome [1]: inactive

COCCCn1c(SCC(=O)NCc2ccco2)nc2sc3c(c2c1=O)CCC3
outcome [1]: inactive

CCCCOC(=O)CSC1=C(C#N)C(c2ccccc2OC)C(C#N)C(=O)N1 (centres undefined)
outcome [1]: inactive

O=c1c2ccccc2nc2n1CCC2
IC50 [2]: > 1360 µM

O=C(c1ccc(F)cc1)N1CCC(N2CCCCCC2)CC1
outcome [1]: inactive

CC1CCN(S(=O)(=O)c2ccc(NC(=O)CN3CCN(C)CC3)cc2)CC1
outcome [1]: inactive

CCOC(=O)c1cc2sc(C)cc2n1CC(=O)N1CCN(C(=O)c2ccco2)CC1
outcome [1]: inactive

COc1c(Br)cc2c(C)c(C(=O)O)oc2c1Br
outcome [1]: inactive

COc1ccc(-n2c(=O)c3c4c(sc3n(CC(=O)NCc3ccco3)c2=O)CCC4)c(OC)c1
outcome [1]: inactive

CCn1nnc(NC(=O)c2cccc(-c3cc4ccccc4oc3=O)c2)n1
outcome [1]: inactive

CCS(=O)(=O)NCCc1csc(C)n1
outcome [1]: inactive

COc1cc2c(cc1OC)CN(Cc1ccc(OC)c(C)c1OC)CC2
outcome [1]: inactive

O=c1c2ccccc2nnn1CSc1nnc(-c2cccs2)n1Cc1ccccc1
outcome [1]: inactive

CCn1nc(-c2cccs2)nc2c(=O)n(C)c(=O)nc1-2
IC50 [2]: 9.46 µM

COc1ccc(N(CC(=O)Nc2cc(OC)ccc2OC)S(C)(=O)=O)cc1
outcome [1]: inactive

COc1cc(NC(=O)c2cc(CC(C)C)on2)c(OC)cc1Cl
outcome [1]: inactive

CN(Cc1c(O)ccc2c1oc(=O)c1ccccc12)C1CCCCC1
IC50 [2]: 8.83 µM

Cn1cccc1Cc1nnc(SCC(=O)NCc2ccc(F)cc2)n1-c1ccc(F)cc1
outcome [1]: inactive

Cc1occc1C(=O)Nc1nnc(C(F)(F)F)s1
outcome [1]: inactive

Cc1ccsc1CN1CCN(c2ccccn2)CC1
outcome [1]: inactive

CN(CCC(=O)Nc1ccc2c(c1)OCO2)Cc1ccccc1
outcome [1]: inactive

O=C1CN(C(=O)COC(=O)C2=COCCO2)c2ccccc2N1
outcome [1]: inactive

Cc1cc(N2CCN(C(=O)c3ccco3)CC2)n2ncnc2n1
outcome [1]: inactive

Cc1ccc(NC2c3ncccc3C(=O)N2c2ccccc2C)cc1C (centres undefined)
IC50 [1]: 4.5 µM

CCN(CC)S(=O)(=O)c1ccc(NC2c3ncccc3C(=O)N2Cc2ccccc2)cc1 (centres undefined)
IC50 [1]: 21.9 µM

O=C(c1cc(-c2ccco2)on1)N1CCCc2ccccc21
outcome [1]: inactive

Oc1ccc(-c2n[nH]c(=S)n2Cc2ccccc2)cc1
outcome [1]: inactive

Cc1cccc(NC(=O)c2cnc3sccn3c2=O)n1
outcome [1]: inactive

COc1ccc2[nH]cc(C3N4CC5(C)CN3CC(C)(C4)C5=O)c2c1 (centres undefined)
outcome [1]: inactive

COc1ccc2nc(NC(=O)C3CCCN(S(=O)(=O)c4cccc5nonc45)C3)sc2c1 (centres undefined)
outcome [1]: inactive

CCOc1ccc(-n2c(-c3ccco3)n[nH]c2=S)cc1
outcome [1]: inactive

Cc1cccc(C(=O)Nc2ccccc2C(=O)OCc2c(C)noc2C)c1
outcome [1]: inactive

CCn1c(SCC(=O)c2ccccc2)nc2c(c1=O)SC(C)C2 (centres undefined)
outcome [1]: inactive

COc1ccc(-c2nc(C#N)c(N3CCOCC3)o2)cc1OC
outcome [1]: inactive

O=c1oc2ccccc2c(O)c1CN1CCCCC1
outcome [1]: inactive

COc1ccc(CN2C(=O)c3cccnc3C2Nc2cc(Cl)c(OC)cc2OC)cc1 (centres undefined)
IC50 [1]: 15.2 µM

COc1ccc(NC(=O)c2cc(-c3ccccc3OC)on2)cc1
outcome [1]: inactive

Cc1ccc(CNC(=O)C2CCN(S(=O)(=O)c3c(C)noc3C)CC2)cc1
outcome [1]: inactive

O=C(NCc1cn2ccccc2n1)c1ccccc1
outcome [1]: inactive

CCOC(=O)c1c(C)n(C)c2ccc(O)c(CN3CCC(C)CC3)c12
outcome [1]: inactive

Cc1ccc2[nH]c(=O)c(CN(CCN3CCOCC3)C(=O)Nc3ccccc3F)cc2c1
outcome [1]: inactive

COc1ccc(N(CC(=O)NCc2cccs2)S(=O)(=O)c2cccnc2)cc1
outcome [1]: inactive

Cc1nn(-c2ccccc2)c2c1C(O)n1c(nc3ccccc31)S2 (centres undefined)
outcome [1]: inactive

COC(=O)C1=C(C)OC(N)=C(C#N)C1c1cc(OC)c(OCC(N)=O)cc1Cl (centres undefined)
outcome [1]: inactive

CCOC(=O)C1CCN(C(=O)CN(c2ccc(OC)c(OC)c2)S(=O)(=O)c2ccccc2)CC1
outcome [1]: inactive

CCN(CC)S(=O)(=O)c1ccc(C(=O)OCC(=O)N2CCN(C(=O)c3ccco3)CC2)cc1
outcome [1]: inactive
